# Several values for one entry are separate records, joined by “and”; a condition that tells them apart may be missing. Equal values may be shown once.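 Compound exposure: 48 hours, 5 concentrations, 96-well plates. GI50: concentration for 50% inhibition of growth. TGI is the concentration that stops growth completely.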
# How the values were obtained:
# Test in all cases: NCI-60 cell line screen, 48 h
# [1] = test system: A549 NSCLC
# [2] = test system: EKVX NSCLC
# [3] = test system: HT29 colon
# [4] = test system: NCI-H23 lung
# [5] = test system: SF-295 CNS
# [6] = test system: SK-MEL-2 melanoma
# [7] = test system: T-47D breast
# [8] = test system: TK-10 renal
# [9] = test system: UACC-257 melanoma
# [10] = test system: UACC-62 melanoma
Structure (SMILES),GI50 [1] [µM],TGI [1],GI50 [2] [µM],TGI [2] [µM],GI50 [3],TGI [3],GI50 [4] [µM],TGI [4],GI50 [5] [µM],TGI [5],GI50 [6] [µM],TGI [6],GI50 [7] [µM],TGI [7] [µM],GI50 [8] [µM],TGI [8] [µM],GI50 [9] [µM],TGI [9],GI50 [10] [µM],TGI [10]
COc1ccc(C(=O)/C=C/c2ccc(Cl)cc2)cc1S(=O)(=O)Nc1c(N)nc(SC)[nH]c1=O,2.75,7.62 µM,3.94,18.3,2.93 µM,7.93 µM,2.53,6.36 µM,2.72,8.91 µM,12.8,27.9 µM,2.45,9.83,2.98,9.44,8.27,21.4 µM,2.33,6.65 µM
Cc1ccc2[nH]c(C(=O)NN3C(=O)CSC34CCCCC4C)c(-c3ccccc3)c2c1 (configuration not stated),13.2,28.2 µM,17,33.8,14.4 µM,36.9 µM,17,33.2 µM,16,31.9 µM,20.9,38.7 µM,16.3,40,17.5,33.8,16.8,31.8 µM,12.8,26.8 µM
O=C(O)CS(=O)(=O)C(c1ccccc1)c1ccccc1,,> 100 µM,,> 100,,> 100 µM,,> 100 µM,,> 100 µM,,> 100 µM,,> 100,,> 100,,> 100 µM,,> 100 µM
CC[C@](C)(O)C(=O)O[C@H]1C(=O)O[C@@H]2C[C@H]3C(C)=CC(=O)[C@@H](O)[C@]3(C)[C@H]3[C@@]4(O)OC[C@]32[C@@H]1[C@@H](C)[C@H]4O,2.75,14.9 µM and 9.66 µM,1.61,,0.321 µM and 0.122 µM,10.3 µM and 2.27 µM,0.05,0.532 µM and 0.136 µM,0.296,2.6 µM and 0.351 µM,,0.644 µM and 0.217 µM,,3.78,,9.39,0.142,0.841 µM and 0.218 µM,0.149,0.705 µM and 0.178 µM
CC12CCC(=O)C=C1CCC1C2CCC2(C)C(C(=O)Cn3cnc4c(=S)nc[nH]c43)CCC12 (configuration not stated),,> 100 µM,,> 100,,> 100 µM,,82.5 µM,,86.7 µM,,> 100 µM,,> 100,,> 100,,> 100 µM,,> 100 µM
COc1cccc(OC(=O)c2ccccc2Nc2ccnc(C(F)(F)F)c2)c1,3.18,20.7 µM,6.62,> 100,3.68 µM,> 100 µM,2.04,6.73 µM,2.51,> 100 µM,34.4,> 100 µM,50.5,> 100,11.2,37,5.37,32.4 µM,3.09,33.9 µM
CCOC(=O)Cc1c[nH]c(=S)[nH]c1=O,> 100,> 100 µM,> 100,> 100,> 100 µM,> 100 µM,> 100,> 100 µM,> 100,> 100 µM,> 100,> 100 µM,> 100,> 100,> 100,> 100,> 100,> 100 µM,> 100,> 100 µM
CN(C)CCNC(=O)c1cccn2c(=O)c3cc4ccccc4cc3nc12,,,0.353,,0.0691 µM,,0.165,1.01 µM,0.0679,1.1 µM,0.203,1.32 µM,0.417,19,0.399,9.8,0.268,1.14 µM,0.194,1.37 µM

# Reference: PubChem BioAssay (NCI)
